Data on three molecules can be found in patent US6083941A, “Inhibition of NMDA receptor activity by pregnenolone sulfate derivatives” (Trustees of Boston University, priority 1998, dated 2000).

“Also recorded” adds a separate entry of the source. Where a name gives a salt, the structure may show the parent alone. Read-outs that look alike come from different tables or passages of the source.

One may read the EC50 as the concentration at which the effect is half-maximal.

Assay [1] has as its system NMDA-induced cell death in primary neuronal cultures of rat hippocampal formation. Briefly: Trypan blue exclusion, NMDA-induced cell death (excitotoxicity) in primary hippocampal cultures. The class given is cell-based. From the text: Trypan blue exclusion was used to evaluate the ability of derivatives of pregnenolone sulfate to inhibit NMDA-induced cell death in primary neuronal cultures of rat hippocampal formation.
Mixed neuronal and glial cultures of hippocampal tissue were derived from fetal rats on day 18 of embryonic development and were maintained in culture for 16 to 24 days (Brewer, G. J., Brain Res., 494: 65-74 (1989)). Care for the animals used in this study was in accordance with institutional guidelines. Hippocampal tissue from Sprague-Dawley rat pups was collected immediately following removal from dams sacrificed with CO2 on embryonic day 18. Cells were dissociated by trituration in Ca^2 +/Mg^2 + free Hank's basic salt solution supplemented with 4.2 mM bicarbonate, 1 mM sodium pyruvate, 20 mM HEPES, 3 mg/ml BSA, and pelleted by centrifugation (900 rpm, 3 min). The resulting pellet was suspended in DMEM supplemented with 2.4 mg/ml BSA, 26.5 mM sodium bicarbonate, 1 mM sodium pyruvate, 20 mM HEPES, 10% FBS, 100 units/ml penicillin, 100 μg/ml streptomycin, and a modification of Brewers B16 defined components (with […] vitamin B12 and without catalase, glutathione, and superoxide dismutase) (Pike, C. J., et al., Neurosci. 13:1676-87 (1993)) and plated onto poly-L-lysine coated 24 well culture dishes (Nunclon) at a density of 15,000 cells/cm^2 and were maintained in a humidified incubator in 5% CO2 /95% air at 37° C. After 5 days in vitro, nonneuronal cell division was inhibited by exposure to 2×10^-6 M cytosine arabinoside for 48 hrs. Cells were subsequently maintained in medium identical to that used for platting without BSA or FBS.
The number of living neurons was determined by assessing the ability of cells to exclude trypan blue 16 hrs. after the addition of drug solutions to the medium of individual culture wells (Dawson, V. L., et al., Proc. Natl. Acad. Sci. USA, 88:6368-6371 (1991)). Drugs were introduced to cultures in 100 μl of conditioned media, collected from experimental cultures just prior to treatment, to a final volume of 0.5 ml. NMDA was dissolved in DMEM at concentrations of 0-5 mM so that addition of 10 μl yielded final concentrations of 0-100 μM. MK-801, a positive control, was dissolved in DMEM at a concentration of 1 mM so that addition of 5 μl yielded a final concentration of 10 μM. Control cultures were exposed only to an equivalent volume of DMEM, and concentration of DMSO (0.5%). The concentrations of the pregnenolone sulfate derivatives were as follows: 10-100 μM 5β3αS, 100 μM 5β3α hemisuccinate and 200 μM 17β-estradiol hemisuccinate.
After exposure to drugs, the medium was replaced by 0.1 M sodium phosphate buffer/0.4% trypan blue. Cell death was assessed by counting the number of trypan blue positive and negative neurons in five high power fields per culture well with an inverted phase contrast microscope using both bright field and phase settings. Cell death is expressed as the ratio of the number of trypan blue positive to total number of cells counted in each well×100 (percent cell death).

The subject of assay [2] is glutamate receptor-mediated spontaneous EPSCs in rat hippocampal neurons. Briefly: Spontaneous excitatory postsynaptic currents (EPSCs), whole-cell recording in cultured hippocampal neurons. The class given is cell-based. The conditions noted are these: for effect on spontaneous EPSCs: cultures of rat hippocampal neurons; for EC50: voltage-clamped at -70 mV, read-out: EC50 of EPSC potentiation. How it is done: Primary cultures of hippocampal neurons were prepared from embryonic day 18 rats. Cultured neurons were used in experiments 2-3 weeks after plating.
Spontaneous excitatory postsynaptic currents were recorded by the whole-cell variant of the patch clamp technique. The pipet solution usually contained (in mM) KCl 10, EGTA 11, sodium gluconate 3, potassium gluconate 140 and HEPES 10, adjusted to pH 7.2 with KOH. The bath solution contained (in mM) NaCl 150, KCl 4, CaCl2 1, and HEPES 10, adjusted to pH 7.2 with NaOH. Because NMDA-induced currents are subject to voltage-dependent block by extracellular Mg^2+, no magnesium salts were added to the bath solution. All records were made with the cell membrane potential clamped at -70 mV, which is very close to the Cl- equilibrium potential. Therefore, IPSCs are not expected to be observed and spontaneous activity should consist of EPSCs. The complete blockage of spontaneous activity by the co-application of the NMDA receptor antagonist APV and the non-NMDA receptor antagonist DNQX argues that the observed spontaneous activity is glutamate receptor-mediated.
Drug solutions were applied to single neurons by pressure ejection (15 psi) from 7-barrel pipets (tip opening ~3-5 μm) positioned ~50 μm from the neuronal soma. In all experiments, neurons received a 40s application of either steroid or steroid plus antagonist(s), followed by 10-20s pulse of external buffer solution.

In assay [3] the test system is NMDA-induced seizure and death in mice. Briefly: NMDA-induced seizure and death (100 mg/kg NMDA challenge). The class given is in vivo. The conditions noted are these: steroid 25 mg/kg i.p., DMSO 50%. How it is done: 5β3αHS (25 mg/kg, i.p.) protects mice from NMDA-induced death. None of the steroids tested altered the latency to NMDA-induced seizure. However, 100% of the animals that received 5β3αHS survived the 100 mg/kg NMDA challenge compared to 50% for DMSO, 75% for 5β3αS and E2 (3)HS, and 50% for E2 (17)HS.

Regarding `CC(=O)[C@H]1CC[C@H]2[C@@H]3CC[C@@H]4C[C@H](OS(=O)(=O)O)CC[C@]4(C)[C@H]3CC[C@]12C` [5β3αS, 3α-hydroxy-5β-pregnan-20-one sulfate], in assay [1] (10-100 μM 5β3αS, FIG. 5), the “protection against chronic NMDA-induced cell death” value is recorded as “ineffective against chronic NMDA-induced cell death” and the “protection against short term NMDA excitotoxicity” value was “protects against short term NMDA excitotoxicity”. Also, the “block of cell death due to NMDA” value in assay [1] (steroid present during the exposure only) was “completely blocked the cell death”. Moreover, the “block of cell death due to NMDA” value in assay [1] (steroid present only after the exposure) is on record as “considerably less effective”. Also, the “effect on spontaneous EPSCs” value in assay [2] is “inhibits spontaneous EPSCs”. Moreover, in assay [3], the “animals that survived the 100 mg/kg NMDA challenge” value is 75%.
As to `CC(=O)[C@H]1CC[C@H]2[C@@H]3CC[C@@H]4C[C@H](OC(=O)CCC(=O)O)CC[C@]4(C)[C@H]3CC[C@]12C` [5β3αHS, 3α-hydroxy-5β-pregnan-20-one hemisuccinate], in assay [1] (100 μM 5β3α hemisuccinate), the “inhibition of the cell death induced by chronic NMDA” value was determined as 50% and the “inhibition of the cell death produced by short term exposure to NMDA” value turned out to be 46%. Further, the “animals that survived the 100 mg/kg NMDA challenge” value in assay [3] stood at 100%.
On to `CC(=O)C1CCC2C3CC=C4CC(OS(=O)(=O)O)CCC4(C)C3CCC12C` (stereo not shown) [PS, pregnenolone sulfate], for which the “potentiation of EPSCs with NMDA receptors blocked” value in assay [2] (100 μM steroid, APV (40 μM)) is recorded as “reduced”. The “effect on spontaneous EPSCs” value in assay [2] is “potentiates spontaneous EPSCs; also recorded: potentiates spontaneous excitatory post-synaptic currents”. The EC50 came to 11.9 µM in assay [2] (listed as pregnenolone sulfate) and 5.6 µM in assay [2].
